These are literature values, as cited in US20230210762A1, “TRANSDERMAL DRUG DELIVERY DEVICES HAVING PSILOCYBIN, LYSERGIC ACID DI[…] 3,4-METHYLENEDIOXYMETHA[…] MICROPROTRUSIONS” (Emergex USA Corporation, priority 2020, published 2023).

Where two headings read alike, the source gives them in different places.

The conditions of data set [1]: psilocybin administered orally to rats.
Test in data set [2]: not given
The source holds these as a separate data set.

Test in data set [3]: not given
This is another data set of the same source.

With `CN(C)CCc1c[nH]c2cccc(O)c12` [psilocin], in data set [1], the “time to maximum plasma levels” value is recorded as “approximately 90 minutes” and the “total volume of psilocin absorbed from the digestive tract” value is “approximately 50%”. Further, the “time until psilocin is detectable in plasma” value (after administration of the parent compound psilocybin) was at most 20 min.

By half-life is commonly meant how long it takes for the measured level to halve. Consider `CN(C)CCc1c[nH]c2cccc(OP(=O)(O)O)c12` [psilocybin, 3-[2-(demethylamino)ethyl-1H-indol-4-yl] dihydrogen phosphate], for which, for the setting “administered intravenously”, the half-life is 1.24 ± 0.327 h. Also, the half-life (administered orally) is 2.72 ± 1.07 h. Moreover, where the note is “psilocybin ingested orally”, the bioavailability entry is listed as “about 50%”. In addition, the “ingested psilocybin absorbed through the stomach and intestine” value in data set [2] (oral, studies in animals) is given as “about 50%”. Also, the “detected in urine, time after ingestion” value in data set [2] (urine) is listed as 7 days. The “time within which most of the drug is eliminated” value in data set [2] (via urine, bile and feces) was at most 8 h. Besides, in data set [2] (within 24 hours), the “absorbed psilocybin excreted in the bile and feces” value is given as 15-20%; the “absorbed psilocybin excreted into the urine” value is on record as “about 65%”. For the same compound, the solubility in water entry in data set [3] is “soluble”.
